Data taken from BindingDB's records for doi:10.1016/j.bmc.2007.01.049 (University of Ferrara, 2007).

Molecular target: deoxyguanosine kinase (Homo sapiens)
Assay: Inhibition of human dGK assessed as […] phosphorylation

Row | SMILES | IC50 [µM]
1 | CCCCCCCC(=O)O[C@H]1[C@H](O)[C@@H](CO)O[C@H]1n1cnc2c(=O)[nH]c(N)nc21 [9-(2'-O-octanoyl-beta-D-arabinofuranosyl)guanine] | > 500
2 | CCCCCCCC(=O)Nc1nc2c(ncn2[C@@H]2O[C@H](CO)[C@@H](O)[C@@H]2OC(=O)CCCCCCC)c(=O)[nH]1 [N2-octanoyl-9-(2'-O-octanoyl-beta-D-arabinofuranosyl)guanine] | > 500
